How the values were obtained:
[1] = target: T1, rIDUA (human recombinant α-L-iduronidase, Aldurazyme) (Homo sapiens, UniProt P35475); experiment: biochemical; parameters: residual rIDUA activity after 1 h preincubation, fluorogenic 4-MU-alpha-L-IdoA substrate, pH 4.5, apparent IC50
T1 construct: gene IDUA; therapeutic recombinant enzyme (Aldurazyme, Genzyme), secreted lysosomal glycoprotein; chymotryptic active-site peptide Asn297-Leu303 with nucleophile Glu299
T1 sequence (P35475 28-653): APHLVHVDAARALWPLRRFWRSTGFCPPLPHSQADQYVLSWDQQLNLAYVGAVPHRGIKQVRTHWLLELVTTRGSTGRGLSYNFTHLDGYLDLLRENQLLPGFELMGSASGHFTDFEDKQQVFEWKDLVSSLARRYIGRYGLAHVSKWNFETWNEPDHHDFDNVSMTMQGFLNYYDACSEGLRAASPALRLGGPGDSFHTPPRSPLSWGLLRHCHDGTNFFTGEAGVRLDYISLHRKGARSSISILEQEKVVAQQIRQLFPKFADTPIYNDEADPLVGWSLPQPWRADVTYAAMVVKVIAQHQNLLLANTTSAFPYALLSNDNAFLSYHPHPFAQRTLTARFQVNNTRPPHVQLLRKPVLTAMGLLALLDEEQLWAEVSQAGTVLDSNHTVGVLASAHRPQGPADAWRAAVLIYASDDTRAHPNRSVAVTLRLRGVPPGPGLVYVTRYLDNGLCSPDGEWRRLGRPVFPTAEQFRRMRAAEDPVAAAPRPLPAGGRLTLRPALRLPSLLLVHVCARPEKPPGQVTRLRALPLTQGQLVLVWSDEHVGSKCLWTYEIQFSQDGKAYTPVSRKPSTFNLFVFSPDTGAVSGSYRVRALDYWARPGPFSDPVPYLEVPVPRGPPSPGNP
Protocol: Apparent IC50 values of inhibitors and ABPs on recombinant human iduronidase and cell lysates Inhibitors and ABPs were diluted at various concentrations in 12.5 µL assay buffer and incubated with 12.5 µL rIDUA (5.8 ng, or 70 fmol) or fibroblast lysates (50 µg protein), both diluted in assay buffer, at 37°C for 1 h (rIDUA) or 4 h (fibroblasts lysates), at 1% (v/v) DMSO concentration. This was followed by iduronidase activity assay (30 min incubation time) described in the previous section. The detected 4-MU fluorescence at each concentration for each compound were normalized to the fluorescence from the control sample without inhibitor, and data were fitted with [inhibitor] vs response – variable slope (four parameters) function in Graphpad Prism 7.0 software to obtain apparent IC50 values. Iduronidase activity assay using 4-MU-α-L-IdoA as substrate Samples containing enzyme were diluted in assay buffer (150 mM citrate/Na2HPO4, pH 4.5, supplemented with 0.1% (v/v) Triton X-100, 0.15 M NaCl, 33 mM CaCl2, 33 mM MgCl2), and load onto a black flat-bottom 96-well plate (Greiner) in triplicates of 25 µL per well. Negative controls (blank) were prepared by substituting enzyme samples with buffer. For reaction, samples were added with 25 µL of 360 µM 4-MU-α-L-IdoA1 (prepared in assay buffer supplemented with 0.1 % (w/v) bovine serum albumin (BSA)), and incubated at 37°C for 30 min to 4h. […]

[2] = target: T1, rIDUA (human recombinant α-L-iduronidase, Aldurazyme); experiment: fluorogenic 4-MU-IdoA activity assay; type: biochemical; conditions: pH 4.5, 60 min incubation, competition with 4-MU-IdoA; covalent; read-out: apparent IC50

## OC[C@H]1[C@@H](O)[C@H](O)[C@@H](O)[C@@H]2N[C@H]12 [compound 11, aziridine 11]
[1]
  IC50: > 100 µM

## [N-]=[N+]=NCCCCCCCCN1[C@@H]2[C@@H](C(=O)O)[C@@H](O)[C@H](O)[C@@H](O)[C@@H]21 (stereo partly drawn) [compound 1, inhibitor 1]
[2]
  IC50: 40.6 ± 17 µM

## [N-]=[N+]=NCCCCCCCCN1[C@@H]2[C@@H](CO)[C@@H](O)[C@H](O)[C@@H](O)[C@@H]21 (stereo partly drawn) [compound 12, alkyl aziridine 12]
[2]
  IC50: 12.2 ± 3.24 µM

Reference: publication PMC6343074, “New Irreversible α‐L‐Iduronidase Inhibitors and Activity‐Based Probes” (Chemistry (Weinheim an Der Bergstrasse, Germany), 2018)
